Assays:
c20s = c20s (Homo sapiens, UniProt P20618+P28074); assay: Purified PI IC50, c20s; assay type: biochemical
i20s = i20s (Homo sapiens, UniProt P20618+P28062); assay: Purified PI IC50, i20s; assay type: biochemical
[1] = Conversion to drug in human plasma (%) over time; assay type: in vitro ADME
[2] = Buffer conversion rates of prodrugs to Compound B; assay type: physicochemical
[3] = Conversion of prodrugs by Human Liver S9; assay type: in vitro ADME
[4] = Pharmacokinetic comparison of Compound A and prodrug in mouse; assay type: in vivo; conditions: dose 5 mg/kg

## COCCOCCOCCOCCC(=O)N/N=C(/[C@H](CC(C)C)NC(=O)[C@H](Cc1ccccc1)NC(=O)[C@H](CC(C)C)NC(=O)[C@H](CCc1ccccc1)NC(=O)CN1CCOCC1)[C@@]1(C)CO1
c20s; Table G, * = did not converge
  Purified PI IC50 Slope c20s: inactive

## CO/N=C(/[C@H](CC(C)C)NC(=O)[C@H](Cc1ccccc1)NC(=O)[C@H](CC(C)C)NC(=O)[C@H](CCc1ccccc1)NC(=O)CN1CCOCC1)[C@@]1(C)CO1
i20s; Table G, * = did not converge
  Purified PI IC50 Slope i20s: inactive

## CC(C)C[C@H](NC(=O)[C@H](CCc1ccccc1)NC(=O)CN1CCOCC1)C(=O)N[C@@H](Cc1ccccc1)C(=O)N[C@@H](CC(C)C)/C(=N/OCC(=O)O)[C@@]1(C)CO1
i20s; Table G, * = did not converge
  Purified PI IC50 Slope i20s: inactive
c20s; Table G, * = did not converge
  Purified PI IC50 Slope c20s: inactive

## CC(C)C[C@H](NC(=O)[C@H](CCc1ccccc1)NC(=O)CN1CCOCC1)C(=O)N[C@@H](Cc1ccccc1)C(=O)N[C@@H](CC(C)C)C(=O)[C@](C)(O)COC(=O)c1c(Cl)cccc1Cl
c20s; Table G, * = did not converge
  Purified PI IC50 Slope c20s: inactive

## COC[C@H](NC(=O)c1cnc(C)s1)C(=O)N[C@@H](COC)C(=O)N[C@@H](Cc1ccccc1)/C(=N/OC)[C@@]1(C)CO1
i20s; Table H
  Purified PI IC50 Slope i20s: inactive
  Purified PI IC50 60 minute point i20s: inactive
c20s; Table H
  Purified PI IC50 Slope c20s: inactive

## COC[C@H](NC(=O)c1cnc(C)s1)C(=O)N[C@@H](COC)C(=O)N[C@@H](Cc1ccccc1)C(=O)[C@](C)(O)COC(C)=O
i20s; Table H
  Purified PI IC50 Slope i20s: inactive
  Purified PI IC50 60 minute point i20s: inactive
c20s; Table H
  Purified PI IC50 Slope c20s: inactive
  Purified PI IC50 60 minute point c20s: inactive

## COC[C@H](NC(=O)c1cnc(C)s1)C(=O)N[C@@H](COC)C(=O)N[C@@H](Cc1ccccc1)C(=O)[C@](C)(O)COC(=O)c1c(Cl)cccc1Cl
i20s; Table H
  Purified PI IC50 Slope i20s: inactive
  Purified PI IC50 60 minute point i20s: inactive
c20s; Table H
  Purified PI IC50 Slope c20s: inactive
  Purified PI IC50 60 minute point c20s: inactive

## COC[C@H](NC(=O)c1cnc(C)s1)C(=O)N[C@@H](COC)C(=O)N[C@@H](Cc1ccccc1)C(=O)[C@](C)(O)COP(=O)(c1ccccc1)c1ccccc1
i20s; Table H
  Purified PI IC50 Slope i20s: inactive
  Purified PI IC50 60 minute point i20s: inactive
c20s; Table H
  Purified PI IC50 Slope c20s: inactive
  Purified PI IC50 60 minute point c20s: inactive

## COCCOCCOCCOCCOCCOCCOCCOCCn1cc(CNC(=O)c2cccc(S(=O)(=O)OCC(C)(O)C(=O)[C@H](CC(C)C)NC(=O)[C@H](Cc3ccccc3)NC(=O)[C@H](CC(C)C)NC(=O)[C@H](CCc3ccccc3)NC(=O)CN3CCOCC3)c2)nn1 (stereo partly drawn)
[1]; 2 min
  Conversion to drug in Human Plasma: 7%
[1]; 30 min
  Conversion to drug in Human Plasma: 63%
[1]; 1 hr
  Conversion to drug in Human Plasma: 100%
[1]; 2 hr
  Conversion to drug in Human Plasma: 95%
[1]; 4 hr
  Conversion to drug in Human Plasma: 80%

## COCCOCCOCCOCCOCCOCCOCCOCCn1cc(COCCCS(=O)(=O)OCC(C)(O)C(=O)[C@H](CC(C)C)NC(=O)[C@H](Cc2ccccc2)NC(=O)[C@H](CC(C)C)NC(=O)[C@H](CCc2ccccc2)NC(=O)CN2CCOCC2)nn1 (stereo partly drawn)
[1]; 2 min
  Conversion to drug in Human Plasma: 2%
[1]; 30 min
  Conversion to drug in Human Plasma: 18%
[1]; 1 hr
  Conversion to drug in Human Plasma: 58%
[1]; 2 hr
  Conversion to drug in Human Plasma: 90%
[1]; 4 hr
  Conversion to drug in Human Plasma: 80%

## COC[C@H](NC(=O)c1cnc(C)s1)C(=O)N[C@@H](COC)C(=O)N[C@@H](Cc1ccccc1)C(=O)[C@](C)(O)CI [20-1]
[2]
  Buffer pH = 7.4 % Conversion @ 1 hour: 24%

## COC[C@H](NC(=O)c1cnc(C)s1)C(=O)N[C@@H](COC)C(=O)N[C@@H](Cc1ccccc1)C(=O)[C@](C)(O)CCl [20-2]
[2]
  Buffer pH = 7.4 % Conversion @ 1 hour: 0%

## COC[C@H](NC(=O)c1cnc(C)s1)C(=O)N[C@@H](COC)C(=O)N[C@@H](Cc1ccccc1)C(=O)[C@](C)(O)CBr [20-3]
[2]
  Buffer pH = 7.4 % Conversion @ 1 hour: 23%

## COC[C@H](NC(=O)c1cnc(C)s1)C(=O)N[C@@H](COC)C(=O)N[C@@H](Cc1ccccc1)C(=O)[C@](C)(O)COS(=O)(=O)CC(F)(F)F [20-4]
[2]
  Buffer pH = 7.4 % Conversion @ 1 hour: 21.2%

## COC[C@H](NC(=O)c1cnc(C)s1)C(=O)N[C@@H](COC)C(=O)N[C@@H](Cc1ccccc1)C(=O)[C@](C)(O)COS(=O)(=O)c1ccc(F)c(F)c1 [20-5]
[2]
  Buffer pH = 7.4 % Conversion @ 1 hour: 13.2%

## COC[C@H](NC(=O)c1cnc(C)s1)C(=O)N[C@@H](COC)C(=O)N[C@@H](Cc1ccccc1)C(=O)[C@](C)(O)COS(=O)(=O)CC(F)F [20-6]
[2]
  Buffer pH = 7.4 % Conversion @ 1 hour: 5.7%

## CCCCS(=O)(=O)OC[C@@](C)(O)C(=O)[C@H](Cc1ccccc1)NC(=O)[C@H](COC)NC(=O)[C@H](COC)NC(=O)c1cnc(C)s1 [20-7]
[2]
  Buffer pH = 7.4 % Conversion @ 1 hour: 4.2%

## CCCCCCCCS(=O)(=O)OC[C@@](C)(O)C(=O)[C@H](Cc1ccccc1)NC(=O)[C@H](COC)NC(=O)[C@H](COC)NC(=O)c1cnc(C)s1 [20-8]
[2]
  Buffer pH = 7.4 % Conversion @ 1 hour: 10.8%

## COC[C@H](NC(=O)c1cnc(C)s1)C(=O)N[C@@H](COC)C(=O)N[C@@H](Cc1ccccc1)C(=O)[C@@](C)(CI)OC(=O)CCCCSC(C)=O [20-10]
[3]
  Human Liver S9 % Conversion @ 1 hour: 3%

## COC[C@H](NC(=O)c1cnc(C)s1)C(=O)N[C@@H](COC)C(=O)N[C@@H](Cc1ccccc1)C(=O)[C@@](C)(CI)OC(=O)CCCOC(C)=O [20-13]
[3]
  Human Liver S9 % Conversion @ 1 hour: 11%

## COC[C@H](NC(=O)c1cnc(C)s1)C(=O)N[C@@H](COC)C(=O)N[C@@H](Cc1ccccc1)C(=O)[C@@](C)(CI)OC(=O)OCc1oc(=O)oc1C [20-15]
[3]
  Human Liver S9 % Conversion @ 1 hour: 30%

## CCOC(=O)C(=O)O[C@](C)(CI)C(=O)[C@H](Cc1ccccc1)NC(=O)[C@H](COC)NC(=O)[C@H](COC)NC(=O)c1cnc(C)s1 [20-16]
[3]
  Human Liver S9 % Conversion @ 1 hour: 24%

## CCOC(=O)CCC(=O)O[C@](C)(CI)C(=O)[C@H](Cc1ccccc1)NC(=O)[C@H](COC)NC(=O)[C@H](COC)NC(=O)c1cnc(C)s1 [20-17]
[3]
  Human Liver S9 % Conversion @ 1 hour: 1%

## COC[C@H](NC(=O)c1cnc(C)s1)C(=O)N[C@@H](COC)C(=O)N[C@@H](Cc1ccccc1)C(=O)[C@@](C)(CI)OC(=O)COc1ccccc1 [20-19]
[3]
  Human Liver S9 % Conversion @ 1 hour: 7%

## COC[C@H](NC(=O)c1cnc(C)s1)C(=O)N[C@@H](COC)C(=O)N[C@@H](Cc1ccccc1)C(=O)[C@@](C)(CI)OC(=O)OCc1ccc(OC(C)=O)cc1 [20-22]
[3]
  Human Liver S9 % Conversion @ 1 hour: 28%

## COC[C@H](NC(=O)c1cnc(C)s1)C(=O)N[C@@H](COC)C(=O)N[C@@H](Cc1ccccc1)C(=O)[C@@](C)(CI)OC(=O)CCl [20-23]
[3]
  Human Liver S9 % Conversion @ 1 hour: 22%

## COC[C@H](NC(=O)c1cnc(C)s1)C(=O)N[C@@H](COC)C(=O)N[C@@H](Cc1ccccc1)C(=O)[C@@](C)(CI)OC=O [20-24]
[3]
  Human Liver S9 % Conversion @ 1 hour: 29%

## CCOC(=O)O[C@](C)(CI)C(=O)[C@H](Cc1ccccc1)NC(=O)[C@H](COC)NC(=O)[C@H](COC)NC(=O)c1cnc(C)s1 [20-25]
[3]
  Human Liver S9 % Conversion @ 1 hour: 14%

## COC[C@H](NC(=O)c1cnc(C)s1)C(=O)N[C@@H](COC)C(=O)N[C@@H](Cc1ccccc1)C(=O)[C@@](C)(CI)OC(=O)Oc1ccccc1 [20-26]
[3]
  Human Liver S9 % Conversion @ 1 hour: 32%

## CC(C)C[C@H](NC(=O)[C@H](CCc1ccccc1)NC(=O)CN1CCOCC1)C(=O)N[C@@H](Cc1ccccc1)C(=O)N[C@@H](CC(C)C)C(=O)[C@@]1(C)CO1 [Cmpd A, (S)-4-methyl-N—((S)-1-(((S)-4-methyl-1-((R)-2-methyloxiran-2-yl)-1-oxopentan-2-yl)amino)-1-oxo-3-phenylpropan-2-yl)-2-((S)-2-(2-morpholinoacetamido)-4-phenylbutanamido)pentanamide]
[4]; time 1 hr
  [Cmpd A]: 0.008 µM
[4]; time 4 hr
  [Cmpd A]: BLOQ
[4]; time 6 hr
  [Cmpd A]: BLOQ
[4]; time 24 hr
  [Cmpd A]: BLOQ

## COC[C@H](NC(=O)c1cnc(C)s1)C(=O)N[C@@H](COC)C(=O)N[C@@H](Cc1ccccc1)C(=O)[C@](C)(O)COS(=O)(=O)c1ccc(C)cc1 [compound 21]
[2]
  Buffer pH = 7.4 % Conversion @ 1 hour: 20.3%

## COC[C@H](NC(=O)c1cnc(C)s1)C(=O)N[C@@H](COC)C(=O)N[C@@H](Cc1ccccc1)C(=O)[C@](C)(O)COS(=O)(=O)C1CCOCC1 [compound 22]
[2]
  Buffer pH = 7.4 % Conversion @ 1 hour: 9.8%

## COC[C@H](NC(=O)c1cnc(C)s1)C(=O)N[C@@H](COC)C(=O)N[C@@H](Cc1ccccc1)C(=O)[C@](C)(O)COS(=O)(=O)Cc1ccccc1 [compound 23]
[2]
  Buffer pH = 7.4 % Conversion @ 1 hour: 9.6%

## COC[C@H](NC(=O)c1cnc(C)s1)C(=O)N[C@@H](COC)C(=O)N[C@@H](Cc1ccccc1)C(=O)[C@](C)(O)COS(=O)(=O)Cc1ccccc1 [drawing 371]
i20s; Table H
  Purified PI IC50 Slope i20s: inactive

Reference: patent US9309283B2, “Prodrugs of peptide epoxy ketone protease inhibitors” (Onyx Therapeutics, Inc., priority 2012, dated 2016)
